Key:
Assay in all cases: relative viability (nuclei count vs DMSO), 5 days (fraction); higher = more cells survive
[1] = compound: CCN1C(=O)C2=CC(=C(N=C2N(C1=O)C3CC3)N)C(=O)N + O=C(CCCCCCC(=O)Nc1ccccc1)NO [Vorinostat] (partner 1 µM)
Outline: (§1)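 Lung cancer cell lines, seeded in 1536-well plates, were treated the following day by pin tool with a single drug or with five library-drug doses (not always all listed) in √10 steps on top of a fixed anchor-drug dose. Cells were fixed and nuclei stained in one step after 5 days, and nuclei were counted. Relative viability is the nuclei count for treated wells divided by that for vehicle wells, reported as medians of duplicate plates.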

[2] = compound: CCN1C(=O)C2=CC(=C(N=C2N(C1=O)C3CC3)N)C(=O)N + C[C@@H](Oc1cc(-c2cnn(C3CCNCC3)c2)cnc1N)c1c(Cl)ccc(F)c1Cl [Crizotinib] (partner 1 µM)
Outline: as §1

[3] = compound: CCN1C(=O)C2=CC(=C(N=C2N(C1=O)C3CC3)N)C(=O)N + C[C@]1(O)C[C@@H](c2nc(-c3ccc4ccc(-c5ccccc5)nc4c3)c3c(N)nccn32)C1 [Linsitinib] (partner 1 µM)
Outline: as §1

[4] = compound: CCN1C(=O)C2=CC(=C(N=C2N(C1=O)C3CC3)N)C(=O)N + CCNC(=O)c1noc(-c2cc(C(C)C)c(O)cc2O)c1-c1ccc(CN2CCOCC2)cc1 [Luminespib] (partner 0.01 µM)
Outline: as §1

[5] = compound: CCN1C(=O)C2=CC(=C(N=C2N(C1=O)C3CC3)N)C(=O)N
Outline: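 Lung cancer cell lines were seeded into 1536-well plates, kept overnight at 37 °C and pinned with five library-drug doses (not always all listed) spaced by √10. After 5 days, nuclei were Hoechst-stained, imaged at 4× and counted with MetaXpress. Viability is treated-well nuclei over vehicle-well nuclei, taken as a median across plates. Plates needed control CV below 25% and at least one doubling.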

Cell Line	relative viability ([1]; first compound 0.253 µM)	relative viability ([1]; first compound 0.8 µM)	relative viability ([1]; first compound 2.53 µM)	relative viability ([1]; first compound 8 µM)	relative viability ([2]; first compound 0.253 µM)	relative viability ([2]; first compound 0.8 µM)	relative viability ([2]; first compound 2.53 µM)	relative viability ([2]; first compound 8 µM)	relative viability ([3]; first compound 0.253 µM)	relative viability ([3]; first compound 0.8 µM)	relative viability ([3]; first compound 2.53 µM)	relative viability ([3]; first compound 8 µM)	relative viability ([4]; first compound 0.253 µM)	relative viability ([4]; first compound 0.8 µM)	relative viability ([4]; first compound 2.53 µM)	relative viability ([4]; first compound 8 µM)	relative viability ([5]; 0.253 µM)	relative viability ([5]; 0.8 µM)	relative viability ([5]; 2.53 µM)	relative viability ([5]; 8 µM)
NCI-H1437	0.845	0.804	0.756	0.808	0.938	0.993	0.818	1.09	0.929	1.04	1.01	1.11	1.1	1.06	1.1	1.16	0.982	0.979	0.969	0.972
NCI-H1651	0.571	0.493	0.55	0.462	0.892	0.884	0.858	0.868	0.953	1.1	0.902	1.04	0.856	0.813	0.874	0.885	0.929	0.976	0.965	0.948
NCI-H1666	1.05	0.99	1	1.09	1.16	0.998	0.883	1	0.805	0.766	0.792	0.779	–	1.02	1.07	1.05	0.93	0.986	0.959	0.938
NCI-H1734	0.744	0.762	0.811	0.784	0.716	0.635	0.618	0.769	0.837	0.849	0.852	0.884	0.67	0.215	0.191	0.233	0.9	0.903	0.948	0.943
NCI-H1755	0.743	0.722	0.76	0.719	0.895	0.865	0.875	0.918	1.02	0.997	1.01	0.942	0.455	0.412	0.528	0.51	0.984	1.02	1	0.979
NCI-H1915	0.49	0.546	0.493	0.436	0.895	0.921	0.851	0.911	1.09	1.1	1.08	1.06	0.852	0.775	0.873	0.892	0.988	1.01	1	0.922
NCI-H1944	0.641	0.51	0.51	0.553	1.06	1.12	1.01	1.3	1.19	1.16	1.02	1.18	0.795	0.711	0.618	0.723	1.01	0.919	0.954	0.827
NCI-H1975	0.733	0.772	0.697	0.757	0.948	0.94	0.97	0.949	0.981	0.955	0.882	1.04	0.167	0.283	0.222	0.276	1.01	0.917	0.957	0.892
NCI-H1993	0.0267	0.735	0.76	0.853	0.998	0.86	0.819	0.882	0.732	0.784	0.7	0.777	1.78	0.877	0.612	0.832	0.972	0.83	0.919	0.878
NCI-H2009	0.732	0.647	0.62	0.663	1.05	1.03	0.99	1.05	1.24	1.15	1.11	1.1	1.02	1.08	0.943	0.916	1.02	1	0.946	0.923
NCI-H2023	0.628	0.58	0.68	0.712	0.639	0.622	0.585	0.606	0.68	0.621	0.548	0.652	0.857	0.726	0.781	0.792	0.937	0.901	0.836	0.896
NCI-H2085	0.767	0.764	0.747	0.782	0.861	0.985	0.84	1.01	0.969	0.754	0.799	0.863	0.378	0.408	0.355	0.493	1.01	0.99	0.941	0.966
NCI-H2087	0.634	1.23	0.911	0.676	0.809	0.937	0.627	0.872	1.02	0.963	0.971	1.04	0.229	0.193	0.132	0.189	0.972	1.14	1.05	1.03
NCI-H2126	0.846	0.803	0.765	0.797	1.03	1.02	1.01	0.977	0.741	0.745	0.656	0.718	0.877	0.911	0.993	0.779	1.02	0.989	0.972	0.963
NCI-H2228	0.933	0.572	0.676	0.679	0.452	0.535	0.433	0.507	0.984	0.943	0.606	0.969	0.132	0.167	0.203	0.11	0.99	1.01	0.902	0.965
NCI-H2347	0.634	0.462	0.623	0.639	0.862	0.841	0.712	0.719	1.04	1.03	0.925	0.845	1.03	0.469	0.774	0.341	0.98	1.04	1.08	1

From the supplement of paper PMC10307832
